Laboratory results from patent publication US10865211B2 (ENANTA PHARMACEUTICALS, INC, priority 2018, dated 2020).
pEC50: −log10 of the molar value.

Columns and labels:
2.2.15 cells = test: Antiviral activity in 2.2.15 cells: reduction of viral product accumulation (qPCR, HBsAg/HBeAg ELISA); format: cell-based, HBV; settings: Hepatitis B virus, 120 h, day 5 post treatment, concentration reducing viral product accumulation in cell lysates or supernatants by 50% relative to no drug controls
Description: 2.2.15 cells are passaged upon attaining confluency in DMEM/F12 media in the presence of 10% FBS, Penn/Strep, and 250 ug/mL G418. Novel compounds are 5 fold serially diluted in DMSO and added to 96 well plates containing 35,000 cells/well at a 1:200 dilution so that the final concentration of DMSO is 0.5%. On day 5, post treatment cell lysates and supernatants are harvested for analysis.
Cells are lysed using Agilent Sidestep Lysis buffer, diluted 1:100 and quantified via quantitative real time PCR. Commercially available ELISA kits are used to quantitate the viral proteins HBsAg (Alpco) or HBeAg (US Biological) by following the manufacturer's recommended protocol after diluting samples to match the linear range of their respective assays. Irrespective of readout, compound concentrations that reduce viral product accumulation in the cell lysates or supernatants by 50% relative to no drug controls (EC50) are reported; EC50 ranges are as follows: A<0.1 μM; B 0.1-1 μM; C>1 μM.

[1] = Compound induced cellular toxicity in HepG2 cells (ATPlite); format: cell-based; settings: human, three days, ATPlite 1 Step, concentration reducing total ATP levels by 50% relative to no drug controls
Description: At day 3, post seeding cells are treated with ATPlite 1 Step according to the manufacturer's instructions.

Compound | pEC50 (2.2.15 cells) | CC50 at 3 days [1]
CC(C)(C)[C@@H]1Cc2c(oc3c(-c4cnsc4)cccc23)-c2cc(=O)c(C(=O)O)cn21 [Example 38, (S)-6-(tert-butyl)-11-(isothiazol-4-yl)-2-oxo-6,7-dihydro-2H-benzofuro[2,3-a]quinolizine-3-carboxylic acid] | > 7.00 | 10 to 25 µM
CC(C)(C)[C@@H]1Cc2c(oc3c(-c4cscn4)cccc23)-c2cc(=O)c(C(=O)O)cn21 [Example 39, (S)-6-(tert-butyl)-2-oxo-11-(thiazol-4-yl)-6,7-dihydro-2H-benzofuro[2,3-a]quinolizine-3-carboxylic acid] | > 7.00 | 10 to 25 µM
CC(C)(C)[C@@H]1Cc2c(oc3c(-c4nccs4)cccc23)-c2cc(=O)c(C(=O)O)cn21 [Example 41, (S)-6-(tert-butyl)-2-oxo-11-(thiazol-2-yl)-6,7-dihydro-2H-benzofuro[2,3-a]quinolizine-3-carboxylic acid] | > 7.00 | 10 to 25 µM
CC(C)(C)[C@@H]1Cc2c(oc3c(-n4cccn4)cccc23)-c2cc(=O)c(C(=O)O)cn21 [Example 42, (S)-6-(tert-butyl)-2-oxo-11-(1H-pyrazol-1-yl)-6,7-dihydro-2H-benzofuro[2,3-a]quinolizine-3-carboxylic acid] | > 7.00 | > 25 µM
CC(C)(C)[C@@H]1Cc2c(oc3c(C4CC4)cccc23)-c2cc(=O)c(C(=O)O)cn21 [Example 43, (S)-6-(tert-butyl)-11-cyclopropyl-2-oxo-6,7-dihydro-2H-benzofuro[2,3-a]quinolizine-3-carboxylic acid] | > 7.00 | 10 to 25 µM
COc1cccc2c3c(oc12)-c1cc(=O)c(C(=O)O)cn1[C@H](C(C)(C)C)C3 [Example 45, (S)-6-(tert-butyl)-11-methoxy-2-oxo-6,7-dihydro-2H-benzofuro[2,3-a]quinolizine-3-carboxylic acid] | > 7.00 | > 25 µM
CC(C)(C)[C@@H]1Cc2c(oc3c(OC4COC4)cccc23)-c2cc(=O)c(C(=O)O)cn21 [Example 46, (S)-6-(tert-butyl)-11-(oxetan-3-yloxy)-2-oxo-6,7-dihydro-2H-benzofuro[2,3-a]quinolizine-3-carboxylic acid] | > 7.00 | > 25 µM
CC(C)(C)[C@@H]1Cc2c(oc3c(OC4CC4)cccc23)-c2cc(=O)c(C(=O)O)cn21 [Example 47, (S)-6-(tert-butyl)-11-cyclopropoxy-2-oxo-6,7-dihydro-2H-benzofuro[2,3-a]quinolizine-3-carboxylic acid] | > 7.00 | 10 to 25 µM
CC(C)(C)[C@@H]1Cc2c(oc3c(-c4ccoc4)cccc23)-c2c(F)c(=O)c(C(=O)O)cn21 [Example 48, (S)-6-(tert-butyl)-1-fluoro-11-(furan-3-yl)-2-oxo-6,7-dihydro-2H-benzofuro[2,3-a]quinolizine-3-carboxylic acid] | > 7.00 | > 25 µM
CC(C)(C)[C@@H]1Cc2c(oc3c(-c4ccco4)cccc23)-c2c(F)c(=O)c(C(=O)O)cn21 [Example 49, (S)-6-(tert-butyl)-1-fluoro-11-(furan-2-yl)-2-oxo-6,7-dihydro-2H-benzofuro[2,3-a]quinolizine-3-carboxylic acid] | > 7.00 | > 25 µM
CC(C)(C)[C@@H]1Cc2c(oc3c(-c4cn[nH]c4)cccc23)-c2c(F)c(=O)c(C(=O)O)cn21 [Example 50, (S)-6-(tert-butyl)-1-fluoro-2-oxo-11-(1H-pyrazol-4-yl)-6,7-dihydro-2H-benzofuro[2,3-a]quinolizine-3-carboxylic acid] | > 7.00 | > 25 µM
CC(C)(C)[C@@H]1Cc2c(oc3c(-c4ccn[nH]4)cccc23)-c2c(F)c(=O)c(C(=O)O)cn21 [Example 51, (S)-6-(tert-butyl)-1-fluoro-2-oxo-11-(1H-pyrazol-5-yl)-6,7-dihydro-2H-benzofuro[2,3-a]quinolizine-3-carboxylic acid] | > 7.00 | > 25 µM
CC(C)(C)[C@@H]1Cc2c(oc3c(-c4cnsc4)cccc23)-c2c(F)c(=O)c(C(=O)O)cn21 [Example 52, (S)-6-(tert-butyl)-1-fluoro-11-(isothiazol-4-yl)-2-oxo-6,7-dihydro-2H-benzofuro[2,3-a]quinolizine-3-carboxylic acid] | > 7.00 | > 25 µM
CC(C)(C)[C@@H]1Cc2c(oc3c(C#N)cccc23)-c2c(F)c(=O)c(C(=O)O)cn21 [Example 53, (S)-6-(tert-butyl)-11-cyano-1-fluoro-2-oxo-6,7-dihydro-2H-benzofuro[2,3-a]quinolizine-3-carboxylic acid] | > 7.00 | > 25 µM
CC(C)(C)[C@@H]1Cc2c(oc3c(-c4cccs4)cccc23)-c2c(F)c(=O)c(C(=O)O)cn21 [Example 54, (S)-6-(tert-butyl)-1-fluoro-2-oxo-11-(thiophen-2-yl)-6,7-dihydro-2H-benzofuro[2,3-a]quinolizine-3-carboxylic acid] | > 7.00 | > 25 µM
Cn1cc(-c2cccc3c4c(oc23)-c2c(F)c(=O)c(C(=O)O)cn2[C@H](C(C)(C)C)C4)cn1 [Example 55, (S)-6-(tert-butyl)-1-fluoro-11-(1-methyl-1H-pyrazol-4-yl)-2-oxo-6,7-dihydro-2H-benzofuro[2,3-a]quinolizine-3-carboxylic acid] | > 7.00 | > 25 µM
CC(C)(C)[C@@H]1Cc2c(oc3c(-c4ccsc4)cccc23)-c2c(F)c(=O)c(C(=O)O)cn21 [Example 57, (S)-6-(tert-butyl)-1-fluoro-2-oxo-11-(thiophen-3-yl)-6,7-dihydro-2H-benzofuro[2,3-a]quinolizine-3-carboxylic acid] | > 7.00 | > 25 µM
CC(C)(C)[C@@H]1Cc2c(oc3c(-c4cnco4)cccc23)-c2c(F)c(=O)c(C(=O)O)cn21 [Example 58, (S)-6-(tert-butyl)-1-fluoro-11-(oxazol-5-yl)-2-oxo-6,7-dihydro-2H-benzofuro[2,3-a]quinolizine-3-carboxylic acid] | > 7.00 | > 25 µM
Cn1nccc1-c1cccc2c3c(oc12)-c1c(F)c(=O)c(C(=O)O)cn1[C@H](C(C)(C)C)C3 [Example 59, (S)-6-(tert-butyl)-1-fluoro-11-(1-methyl-1H-pyrazol-5-yl)-2-oxo-6,7-dihydro-2H-benzofuro[2,3-a]quinolizine-3-carboxylic acid] | > 7.00 | > 25 µM
CC(C)(C)[C@@H]1Cc2c(oc3c(-c4nccs4)cccc23)-c2c(F)c(=O)c(C(=O)O)cn21 [Example 61, (S)-6-(tert-butyl)-1-fluoro-2-oxo-11-(thiazol-2-yl)-6,7-dihydro-2H-benzofuro[2,3-a]quinolizine-3-carboxylic acid] | > 7.00 | > 25 µM
CC(C)(C)[C@@H]1Cc2c(oc3c(-c4cscn4)cccc23)-c2c(F)c(=O)c(C(=O)O)cn21 [Example 62, (S)-6-(tert-butyl)-1-fluoro-2-oxo-11-(thiazol-4-yl)-6,7-dihydro-2H-benzofuro[2,3-a]quinolizine-3-carboxylic acid] | > 7.00 | 10 to 25 µM
CC(C)(C)[C@@H]1Cc2c(oc3c(-n4cccn4)cccc23)-c2c(F)c(=O)c(C(=O)O)cn21 [Example 63, (S)-6-(tert-butyl)-1-fluoro-2-oxo-11-(1H-pyrazol-1-yl)-6,7-dihydro-2H-benzofuro[2,3-a]quinolizine-3-carboxylic acid] | > 7.00 | > 25 µM
